Measured values from publication PMC8318587, “Structure-guided microbial targeting of antistaphylococcal prodrugs” (eLife, 2021).
Converted amounts (≈) assume the structure as drawn. Where two headings read alike, the source gives them in different places.

Legend:
[1] = test system: S. aureus (JE2, NTML transposon mutants, Newman resistant isolates); experiment: POM-HEX half-maximal growth inhibitory concentration (IC50), microtiter broth dilution; type: cell-based; conditions: Staphylococcus aureus
Procedure: Half-maximal inhibitory concentration (IC50) determination was performed using microtiter broth dilution in clear 96-well plates ([European Committee for Antimicrobial Susceptibility Testing (EUCAST) of the ES of CM and ID (ESCMID), 2000]). Briefly, POM-HEX was added to 75 µL LB media at a final concentration of 20–50 µM POM-HEX and 0.5% DMSO, with POM-HEX concentrations varying according to resistant strain. Subsequently, POM-HEX was serially diluted in LB media containing 0.5% DMSO for a total of 10 dilutions. Two wells were left without drug, one used to define 100% growth, and the other used to control for media contamination and to define 0% growth. Seventy-five microliters of mid-log phase S. aureus diluted to 1 × 10^5 colony forming units/mL were subsequently added to the plate. Following inoculation, plates were incubated at 37°C with shaking, and OD600 measurements were taken every 20 min for a total of 16 hr. Half-maximal inhibitory concentrations (IC50) were determined by fitting the OD600 of each condition following 10 hr of growth to a nonlinear regression using GraphPad Prism software. Experiments were performed in triplicate with technical duplicates.
Generation of POM-HEX resistant strains was performed by plating log-phase S. aureus Newman on LB agar containing 3.33 μM POM-HEX and incubating at 37°C overnight. Surviving single colonies were grown overnight in LB media and frozen in 10% glycerol for long term storage. All assays were performed from fresh overnight inoculations from glycerol stocks.

[2] = test system: S. aureus Newman; type: cell-based, Staphylococcus aureus; conditions: LB agar, 24 hr, mean ± SD
Procedure: (§1) Antibiotic resistance frequency was determined on LB agar plates containing 4× and 10×, the minimum inhibitory concentrations of several antibiotics. MICs were determined for S. aureus Newman in liquid LB media. […] Briefly, S. aureus Newman was grown in LB media to late log-phase and centrifuged at 4000 × g for 15 min before resuspension at an OD600 nm of 30 (~1E11 CFU/mL) in LB media. One hundred microliter aliquots of concentrated S. aureus was plated in duplicate on selective and non-selective plates and incubated at 37°C. After 24 hr, mutation rates were calculated by counting the number of colonies present and dividing by the total number of colonies plated. Experiments were performed in triplicate.

[3] = test system: S. aureus Newman; experiment: Minimum inhibitory concentration (MIC) in liquid LB media; type: cell-based; conditions: Staphylococcus aureus, NEWMAN
Procedure: as §1

[4] = test system: GloB; set-up: method as in Mikati et al., 2020; conditions: ref Mikati et al., 2020; cited from earlier work

CC(C)(C)C(=O)OCOP(=O)(OCOC(=O)C(C)(C)C)C1CCCN(O)C1=O (stereo not shown) [POM-HEX]
IC50 ([1]; 10 h, read-out: POM-HEX IC50, S. aureus JE2 parental strain, OD600 at 10 hr): 1540 nM | IC50 ([1]; read-out: POM-HEX IC50, transposon mutant NE64 (hemY, SAUSA300_1781)): 1430 nM | IC50 ([1]; read-out: POM-HEX IC50, transposon mutant NE145 (uvrA, SAUSA300_0742)): 1460 nM | IC50 ([1]; read-out: POM-HEX IC50, transposon mutant NE202 (SAUSA300_1902)): 700 nM | IC50 ([1]; read-out: POM-HEX IC50, transposon mutant NE223 (truA, SAUSA300_2173)): 1390 nM | IC50 ([1]; read-out: POM-HEX IC50, transposon mutant NE293 (SAUSA300_1285)): 1410 nM | IC50 ([1]; read-out: POM-HEX IC50, transposon mutant NE355 (gbaA, SAUSA300_2515)): 1730 nM | IC50 ([1]; read-out: POM-HEX IC50, transposon mutant NE364 (SAUSA300_0671)): 1650 nM | IC50 ([1]; read-out: POM-HEX IC50, transposon mutant NE377 (GloB, SAUSA300_1505)): 10600 nM | IC50 ([1]; read-out: POM-HEX IC50, transposon mutant NE386 (rot, SAUSA300_1708)): 1400 nM | IC50 ([1]; read-out: POM-HEX IC50, transposon mutant NE478 (phnE, SAUSA300_0142)): 1610 nM | IC50 ([1]; read-out: POM-HEX IC50, transposon mutant NE503 (estA, FrmB, SAUSA300_2564)): 6280 nM | IC50 ([1]; read-out: POM-HEX IC50, transposon mutant NE520 (proC, SAUSA300_1452)): 1470 nM | IC50 ([1]; read-out: POM-HEX IC50, transposon mutant NE532 (SAUSA300_2473)): 1560 nM | IC50 ([1]; read-out: POM-HEX IC50, transposon mutant NE541 (SAUSA300_0201)): 1600 nM | IC50 ([1]; read-out: POM-HEX IC50, transposon mutant NE621 (SAUSA300_0581)): 1620 nM | IC50 ([1]; read-out: POM-HEX IC50, transposon mutant NE812 (SAUSA300_0299)): 1640 nM | IC50 ([1]; read-out: POM-HEX IC50, transposon mutant NE929 (mtlF, SAUSA300_2105)): 1700 nM | IC50 ([1]; read-out: POM-HEX IC50, transposon mutant NE937 (fruC, SAUSA300_1993)): 1670 nM | IC50 ([1]; read-out: POM-HEX IC50, transposon mutant NE949 (hsdM2, SAUSA300_1752)): 1730 nM | IC50 ([1]; read-out: POM-HEX IC50, transposon mutant NE1039 (psuG, SAUSA300_0312)): 1730 nM | IC50 ([1]; read-out: POM-HEX IC50, transposon mutant NE1071 (capD, SAUSA300_0538)): 1540 nM | IC50 ([1]; read-out: POM-HEX IC50, transposon mutant NE1118 (dapD, SAUSA300_1290)): 1690 nM | IC50 ([1]; read-out: POM-HEX IC50, transposon mutant NE1127 (lpl4, SAUSA300_0414)): 1720 nM | IC50 ([1]; read-out: POM-HEX IC50, transposon mutant NE1173 (SAUSA300_1792)): 1840 nM | IC50 ([1]; read-out: POM-HEX IC50, transposon mutant NE1225 (SAUSA300_0421)): 2150 nM | IC50 ([1]; read-out: POM-HEX IC50, transposon mutant NE1238 (SAUSA300_0214)): 2080 nM | IC50 ([1]; read-out: POM-HEX IC50, transposon mutant NE1283 (tnp, SAUSA300_0028)): 2100 nM | IC50 ([1]; read-out: POM-HEX IC50, transposon mutant NE1296 (saeS, SAUSA300_0690)): 2070 nM | IC50 ([1]; read-out: POM-HEX IC50, transposon mutant NE1486 (phoP, SAUSA300_1639)): 2180 nM | IC50 ([1]; read-out: POM-HEX IC50, transposon mutant NE1505 (SAUSA300_0840)): 2200 nM | IC50 ([1]; read-out: POM-HEX IC50, transposon mutant NE1519 (accC, SAUSA300_1563)): 1750 nM | IC50 ([1]; read-out: POM-HEX IC50, transposon mutant NE1547 (SAUSA300_2508)): 1480 nM | IC50 ([1]; read-out: POM-HEX IC50, transposon mutant NE1610 (pdhD, SAUSA300_0996)): 1230 nM | IC50 ([1]; read-out: POM-HEX IC50, transposon mutant NE1682 (hlgB, SAUSA300_2367)): 1370 nM | IC50 ([1]; read-out: POM-HEX IC50, transposon mutant NE1723 (SAUSA300_0094)): 1340 nM | Mutational frequency at 4× MIC [2]: 5.96 ± 1.60 E-07 | Mutational frequency at 10× MIC [2]: 2.92 ± 0.57 E-07 | MIC [3]: 3.13 µg/mL (≈ 7.39 µM) | Prodrug activation product with GloB, in words [4]: removes only one POM moiety
